Experimental data reported in patent publication US7547803B2, “Process for producing a high purity aromatic polycarboxylic acid” (Mitsubishi Gas Chemical Company, Inc., priority 2003, dated 2009).

Assay: solubility in water at 280° C.
Type: physicochemical

- solubility of 2,6-naphthalenedicarboxylic acid in water: about 6 g in 100 g of water
SMILES: O=C(O)c1ccc2cc(C(=O)O)ccc2c1 [2,6-naphthalenedicarboxylic acid]
